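Dose response: 5 concentrations. Exposure: 48 h. Format: 96-well plates. Endpoint: linear interpolation; highest concentration if not reached. Abbreviation: GI50, concentration required for 50% inhibition of growth. TGI: concentration producing complete growth inhibition.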
Experiments:
Test in all cases: NCI tumour cell line growth inhibition, 48 h
SK-OV-3 ovarian = test system: SK-OV-3 ovarian
TK-10 renal = test system: TK-10 renal
KM12 colon = test system: KM12 colon
SF-268 CNS = test system: SF-268 CNS
UACC-62 melanoma = test system: UACC-62 melanoma
UO-31 renal = test system: UO-31 renal
NCI-H23 lung = test system: NCI-H23 lung
SK-MEL-5 melanoma = test system: SK-MEL-5 melanoma
OVCAR-4 ovarian = test system: OVCAR-4 ovarian
SK-MEL-28 melanoma = test system: SK-MEL-28 melanoma

| Compound | TGI (SK-OV-3 ovarian) | TGI (TK-10 renal) | TGI (KM12 colon) | TGI (SF-268 CNS) | TGI (UACC-62 melanoma) | TGI (UO-31 renal) | TGI (NCI-H23 lung) | TGI (SK-MEL-5 melanoma) | TGI (OVCAR-4 ovarian) | TGI (SK-MEL-28 melanoma) | GI50 (SK-OV-3 ovarian) | GI50 (TK-10 renal) | GI50 (KM12 colon) | GI50 (SF-268 CNS) | GI50 (UACC-62 melanoma) | GI50 (UO-31 renal) | GI50 (NCI-H23 lung) | GI50 (SK-MEL-5 melanoma) | GI50 (OVCAR-4 ovarian) | GI50 (SK-MEL-28 melanoma) |
| --- | --- | --- | --- | --- | --- | --- | --- | --- | --- | --- | --- | --- | --- | --- | --- | --- | --- | --- | --- | --- |
| COc1ccc(/C=C/c2cc(OC)c(OC)c(OC)c2)cc1OC | > 100 µM | > 100 µM | > 100 µM | > 100 µM | > 100 µM | > 100 µM | > 100 µM | > 100 µM | > 100 µM | > 100 µM |  |  |  |  |  |  |  |  |  |  |
| CCCC(=O)Oc1ccc(/C=N/NC(N)=S)nc1 | > 100 µM | > 100 µM | > 100 µM | > 100 µM | > 100 µM | > 100 µM | > 100 µM | > 100 µM | > 100 µM | > 100 µM |  |  |  |  |  |  |  |  |  |  |
| C=CCN=C1NC(=O)C(CC(=O)Nc2cccc(Cl)c2)S1 (centres undefined) | > 100 µM | > 100 µM | > 100 µM | > 100 µM | > 100 µM | > 100 µM | > 100 µM | > 100 µM | > 100 µM | > 100 µM |  |  |  |  |  |  |  |  |  |  |
| COc1ccc(Cc2ccc3[nH]c(=O)cc(C)c3c2)cc1S(=O)(=O)O | > 100 µM | > 100 µM | > 100 µM | > 100 µM | > 100 µM | > 100 µM | > 100 µM | > 100 µM | > 100 µM | > 100 µM |  |  |  |  |  |  |  |  |  |  |
| O=[N+]([O-])c1cc(I)cc(/C=N/NS(=O)(=O)c2ccc(F)cc2)c1O | 70.2 µM | 77.7 µM | 61.9 µM | 61.5 µM | 41.6 µM | 61 µM | 38.9 µM | 45.2 µM | > 100 µM | 81.6 µM |  |  |  |  |  |  |  |  |  |  |
| O=C(O)C(Cc1ccccc1)N=Cc1nc(-c2ccccc2)oc1O (centres undefined) | > 100 µM | > 100 µM | > 100 µM | > 100 µM | > 100 µM | > 100 µM | > 100 µM | > 100 µM | > 100 µM | > 100 µM |  |  |  |  |  |  |  |  |  |  |
| CC(=O)OC1CC2C(C)(C)C(=O)C=C[C@]2(C)C2CCC3(C)C(c4ccoc4)C(=O)C4OC43[C@]12C (some centres undefined) | 43.6 µM | > 100 µM | 29.3 µM | 53.9 µM | 34.3 µM | 37.6 µM | 31.2 µM | 30 µM | 58.9 µM | 32 µM |  |  |  |  |  |  |  |  |  |  |
| OCC1CC2C=CCC(C2)C1 (centres undefined) | > 100 µM | > 100 µM | > 100 µM | > 100 µM | > 100 µM | > 100 µM | > 100 µM | > 100 µM | > 100 µM | > 100 µM |  |  |  |  |  |  |  |  |  |  |
| CO[C@H]1/C=C/O[C@@]2(C)Oc3c(C)c(O)c4c(O)c(c(/C=N/N5C(C)CN(Cc6ccc(C#N)cc6)CC5C)c(O)c4c3C2=O)NC(=O)/C(C)=C\C=C\[C@H](C)[C@H](O)[C@@H](C)[C@@H](O)[C@@H](C)[C@H](OC(C)=O)[C@@H]1C (some centres undefined) | 23.4 µM | 18.8 µM | 12.7 µM | 24.1 µM | 10.4 µM | 10.5 µM | 30.7 µM | 12.3 µM | 26.4 µM | 16.4 µM | 9.55 µM | 7.92 µM | 5.89 µM | 9.58 µM | 3.88 µM | 3.64 µM | 9.67 µM | 5.91 µM | 7.49 µM | 8.45 µM |
| CC(C)(C)OC(=O)NC(Cc1ccccc1)C(=S)N1CCCC1 (centres undefined) | > 100 µM | > 100 µM | > 100 µM | > 100 µM | > 100 µM | > 100 µM | > 100 µM | > 100 µM | > 100 µM | > 100 µM |  |  |  |  |  |  |  |  |  |  |
| Cn1cnc(SC2=CC(=O)C=C3S[C@H]4C[C@@]23c2c(c(O)c3c5c2=NCCC=5C=N3)N4)c1CC(N)C(=O)O (some centres undefined) | 36.6 µM | 36.9 µM | 25.4 µM | 26.1 µM | 19.6 µM | 30.3 µM | 15.2 µM | 27.6 µM | 26.2 µM | 30.4 µM | 18 µM | 18 µM | 12.7 µM | 12.4 µM | 7.31 µM | 16.4 µM |  | 14.5 µM | 13.4 µM | 16.2 µM |
| COc1cc(OCCCN2CCCC2)ccc1Nc1ncc(Cl)c(Nc2ccccc2P(C)(C)=O)n1 | 6.41 µM | 4.91 µM | 11 µM | 10.6 µM | 12.9 µM | 6.31 µM | 13.2 µM | 15.8 µM | 11.7 µM | 26.6 µM | 2.3 µM | 0.983 µM | 2.63 µM | 2.49 µM | 2.43 µM | 2.28 µM | 1.98 µM | 3.71 µM | 1.52 µM | 6.34 µM |
| Oc1ccc(Br)cc1C=NC1CCCCC1 | > 100 µM | > 100 µM | > 100 µM | > 100 µM | > 100 µM | > 100 µM | > 100 µM | 43.8 µM | > 100 µM | > 100 µM |  |  |  |  |  |  |  |  |  |  |
| OCC#Cc1ccccc1C#Cc1ccc(C#Cc2ccccc2C#CCO)cc1 | > 100 µM | > 100 µM | > 100 µM | > 100 µM | > 100 µM | > 100 µM | > 100 µM | 59.3 µM | > 100 µM | > 100 µM | 55.4 µM | 52.8 µM | 95.8 µM | 35.1 µM | 58.6 µM | 36 µM | 41.5 µM | 23.7 µM | 65.8 µM | > 100 µM |
| [Mn+3].[O-][Cl+3]([O-])([O-])O.[O-]c1ccccc1C=NCCN1CC1.[O-]c1ccccc1C=NCCN1CC1 | > 100 µM | > 100 µM | 39 µM | > 100 µM | 33.6 µM | > 100 µM | 52.8 µM | 80.8 µM | > 100 µM | > 100 µM | 35.2 µM | 50.7 µM | 17 µM | 15.9 µM | 16.6 µM | > 100 µM | 15.4 µM | 17.6 µM | 15.4 µM | 35.8 µM |
| COc1ccc(NC(=O)c2ccc(C(F)(F)F)nc2Nc2ccc(Cl)cc2C)cc1Cl | 18.6 µM | 41.6 µM | 28 µM | 21.3 µM | 14.3 µM | 17.8 µM | 15.1 µM | 18.7 µM | 17.5 µM | 16.9 µM | 4.67 µM | 17.3 µM | 6.03 µM | 5.4 µM | 3.35 µM | 4.39 µM | 3.09 µM | 4.09 µM | 3.18 µM | 5.2 µM |
